Data reported in ChEMBL document CHEMBL6120982, “Cell-penetrating anti-sense peptide nucleic acids targeting sulfatase 2 inhibit adipogenesis in human mesenchymal stem cells” (Bioorg Med Chem, 2024).
Calls of active or inactive are those of the source. The calls are words filed in the database; no cut-off is given here.

What was measured:
[1] = system: Mesenchymal stem cells; assay: Anti-adipogenic activity in insulin/dexamthasone/pioglitazone/IBMX differentiated human BMMSC cells assessed as downregulation of adiponectin protein secretion by ELISA; assay type: functional, cell-based
[2] = system: Mesenchymal stem cells; assay: Inhibition of SULF2 mRNA expression in human BMMSC cells at 0.1 uM by RT-qPCR analysis; assay type: functional, cell-based
[3] = system: DNA; assay: Binding affinity to N-terminal of 10-mer c-DNA (unknown origin) assessed as melting temperature at 4 uM by UV-Vis spectrophotometric analysis; assay type: nucleic-acid assay
[4] = system: Mesenchymal stem cells; assay: Cytotoxicity against human BMMSC cells assessed as effect on cell viability upto 1 uM incubated for 24 hrs by CCK8 assay; assay type: toxicity, cell-based
[5] = system: Mesenchymal stem cells; assay: Effect on osteogenesis in ascorbic acid/dexamethasone/beta-glycerol phosphate differentiated human BMMSC cells; assay type: functional, cell-based
[6] = system: Mesenchymal stem cells; assay: Anti-adipogenic activity in insulin/dexamthasone/pioglitazone/IBMX differentiated human BMMSC cells assessed as downregulation of adiponectin protein secretion at 1 uM by ELISA; assay type: functional, cell-based
[7] = system: Mesenchymal stem cells; assay: Inhibition of SULF2 mRNA expression in human BMMSC cells by RT-qPCR analysis; assay type: functional, cell-based; conditions: dose 0.01-1 µM
[8] = system: DNA; assay: Binding affinity to C-terminal of 10-mer c-DNA (unknown origin) assessed as melting temperature at 4 uM by UV-Vis spectrophotometric analysis; assay type: nucleic-acid assay
[9] = system: DNA; assay: Binding affinity to 10-mer DNA (unknown origin) assessed as melting temperature at 4 uM by UV-Vis spectrophotometric analysis; assay type: nucleic-acid assay

Q: Which IC50 [1] does the source give for `Cc1cn(CC(=O)N(CCNC(=O)CN(CCNC(=O)CN(CCNC(=O)CN(CCNC(=O)CN(CCNC(=O)CN(CCNC(=O)CN(CCNC(=O)CN(CCNC(=O)CN(CCNC(=O)CN(CCNC(=O)CN(CCNC(=O)CN(CCNC(=O)CN(CCNC(=O)CN(CCNC(=O)CN(CCNC(=O)CN(CCNC(=O)CN(CCNC(=O)CN(CCNC(=O)CN(CCNC(=O)CN(CCNC(=O)OCCC2c3ccccc3-c3ccccc32)C(=O)Cn2cnc3c(=O)[nH]c(N)nc32)C(=O)Cn2cnc3c(=O)[nH]c(NCCCCCCN)nc32)C(=O)Cn2cnc3c(=O)[nH]c(N)nc32)C(=O)Cn2cnc3c(=O)[nH]c(N)nc32)C(=O)Cn2cc3cc(COCCN)[nH]c3nc2=O)C(=O)Cn2ccc(N)nc2=O)C(=O)Cn2ccc(N)nc2=O)C(=O)Cn2cnc3c(N)nc(NCCCCCN)nc32)C(=O)Cn2cc(C)c(=O)[nH]c2=O)C(=O)Cn2ccc(N)nc2=O)C(=O)Cn2cc(C)c(=O)[nH]c2=O)C(=O)Cn2cc(C)c(=O)[nH]c2=O)C(=O)Cn2cc3cc(COCCN)[nH]c3nc2=O)C(=O)Cn2cc(C)c(=O)[nH]c2=O)C(=O)Cn2cc(C)c(=O)[nH]c2=O)C(=O)Cn2cc(C)c(=O)[nH]c2=O)C(=O)Cn2cc(C)c(=O)[nH]c2=O)C(=O)Cn2cc(C)c(=O)[nH]c2=O)C(=O)Cn2cc(C)c(=O)[nH]c2=O)CC(N)=O)c(=O)[nH]c1=O` here?
A: > 1 µM

Q: And the inhibition [2]?
A: Mild_effect

Q: And the Tm [3]?
A: > 90 °C

Q: And the Activity [4]?
A: Non-toxic

Q: And the Activity [5]?
A: inactive

Q: What about the Activity [6] of the same compound?
A: Active

Q: And the inhibition [7]?
A: Dose-dependent-effect

Q: Which results are given for `Cc1cn(CC(=O)N(CCNC(=O)CN(CCNC(=O)CN(CCNC(=O)CN(CCNC(=O)CN(CCNC(=O)CN(CCNC(=O)CN(CCNC(=O)CN(CCNC(=O)CN(CCNC(=O)CN(CCNC(=O)CN(CCNC(=O)CN(CCNC(=O)CN(CCNC(=O)CN(CCNC(=O)CN(CCNC(=O)CN(CCNC(=O)CN(CCNC(=O)CN(CCNC(=O)OCCC2c3ccccc3-c3ccccc32)C(=O)Cn2cc(C)c(=O)[nH]c2=O)C(=O)Cn2cnc3c(=O)[nH]c(N)nc32)C(=O)Cn2ccc(N)nc2=O)C(=O)Cn2cnc3c(N)nc(NCCCCCN)nc32)C(=O)Cn2cc(C)c(=O)[nH]c2=O)C(=O)Cn2cnc3c(=O)[nH]c(N)nc32)C(=O)Cn2cnc3c(=O)[nH]c(N)nc32)C(=O)Cn2cnc3c(N)nc(NCCCCCN)nc32)C(=O)Cn2cnc3c(N)ncnc32)C(=O)Cn2ccc(N)nc2=O)C(=O)Cn2cc3cc(COCCN)[nH]c3nc2=O)C(=O)Cn2cc(C)c(=O)[nH]c2=O)C(=O)Cn2cnc3c(=O)[nH]c(N)cc32)C(=O)Cn2ccc(N)nc2=O)C(=O)Cn2cnc3c(N)nc(NCCCCCN)nc32)C(=O)Cn2cnc3c(N)ncnc32)C(=O)Cn2cnc3c(=O)[nH]c(NCCCCCCN)nc32)CC(=O)NCCN(CC(=O)NCCN(CC(N)=O)C(=O)Cn2cnc3c(N)ncnc32)C(=O)Cn2ccc(N)nc2=O)c(=O)[nH]c1=O`?
A: Tm [8]: 51.1 °C; inhibition [2]: inactive; Tm [3]: 66.4 °C; Activity [4]: Non-toxic; Activity [5]: inactive

Q: Which Tm [9] does the source give for `NCCOCc1cc2cn(CC(=O)N(CCNC(=O)CN(CCNC(=O)CN(CCNC(=O)CN(CCNC(=O)CN(CCN)C(=O)Cn3ccc(N)nc3=O)C(=O)Cn3cnc4c(N)ncnc43)C(=O)Cn3cnc4c(=O)[nH]c(N)nc43)C(=O)Cn3cnc4c(N)ncnc43)CC(=O)NCCN(CC(=O)NCCN(CC(=O)NCCN(CC(=O)NCCN(CC(=O)NCCN(CC(N)=O)C(=O)Cn3ccc(N)nc3=O)C(=O)Cn3cnc4c(=O)[nH]c(N)nc43)C(=O)Cn3cnc4c(N)ncnc43)C(=O)Cn3cnc4c(=O)[nH]c(N)nc43)C(=O)Cn3cnc4c(N)ncnc43)c(=O)nc2[nH]1` here?
A: 77.2 °C

Q: For `NCCN(CC(=O)NCCN(CC(=O)NCCN(CC(=O)NCCN(CC(=O)NCCN(CC(=O)NCCN(CC(=O)NCCN(CC(=O)NCCN(CC(=O)NCCN(CC(=O)NCCN(CC(N)=O)C(=O)Cn1cnc2c(N)ncnc21)C(=O)Cn1ccc(N)nc1=O)C(=O)Cn1cnc2c(N)ncnc21)C(=O)Cn1cnc2c(=O)[nH]c(N)nc21)C(=O)Cn1cnc2c(N)ncnc21)C(=O)Cn1ccc(N)nc1=O)C(=O)Cn1cnc2c(N)ncnc21)C(=O)Cn1ccc(N)nc1=O)C(=O)Cn1cnc2c(=O)[nH]c(N)nc21)C(=O)Cn1cnc2c(N)ncnc21`, which Tm [9] is on record?
A: 65.2 °C

Q: Which Tm [9] does the source give for `Cc1cn(CC(=O)N(CCN)CC(=O)NCCN(CC(=O)NCCN(CC(=O)NCCN(CC(=O)NCCN(CC(=O)NCCN(CC(=O)NCCN(CC(=O)NCCN(CC(=O)NCCN(CC(=O)NCCN(CC(N)=O)C(=O)Cn2cnc3c(N)ncnc32)C(=O)Cn2ccc(N)nc2=O)C(=O)Cn2cnc3c(=O)[nH]c(N)nc32)C(=O)Cn2cnc3c(N)ncnc32)C(=O)Cn2ccc(N)nc2=O)C(=O)Cn2cnc3c(N)ncnc32)C(=O)Cn2cnc3c(=O)[nH]c(N)nc32)C(=O)Cn2cnc3c(N)ncnc32)C(=O)Cn2ccc(N)nc2=O)c(=O)[nH]c1=O` here?
A: 66.2 °C

Q: With `NCCCCCCNc1nc2c(ncn2CC(=O)N(CCNC(=O)CN(CCNC(=O)CN(CCNC(=O)CN(CCNC(=O)CN(CCNC(=O)CN(CCN)C(=O)Cn2cnc3c(=O)[nH]c(N)nc32)C(=O)Cn2ccc(N)nc2=O)C(=O)Cn2cnc3c(N)ncnc32)C(=O)Cn2cnc3c(=O)[nH]c(NCCCCCCN)nc32)C(=O)Cn2cnc3c(N)nc(NCCCCCN)nc32)CC(=O)NCCN(CC(=O)NCCN(CC(=O)NCCN(CC(=O)NCCN(CC(N)=O)C(=O)Cn2cnc3c(=O)[nH]c(N)nc32)C(=O)Cn2cnc3c(N)ncnc32)C(=O)Cn2cnc3c(=O)[nH]c(NCCCCCCN)nc32)C(=O)Cn2ccc(N)nc2=O)c(=O)[nH]1` as the compound, how does the Tm [9] read?
A: 74.8 °C

Q: Which Tm [9] does the source give for `NCCCCCNc1nc(N)c2ncn(CC(=O)N(CCNC(=O)CN(CCNC(=O)CN(CCNC(=O)CN(CCNC(=O)CN(CCN)C(=O)Cn3cnc4c(=O)[nH]c(N)nc43)C(=O)Cn3ccc(N)nc3=O)C(=O)Cn3cnc4c(N)ncnc43)C(=O)Cn3cnc4c(=O)[nH]c(N)nc43)CC(=O)NCCN(CC(=O)NCCN(CC(=O)NCCN(CC(=O)NCCN(CC(=O)NCCN(CC(N)=O)C(=O)Cn3cnc4c(=O)[nH]c(N)nc43)C(=O)Cn3cnc4c(N)ncnc43)C(=O)Cn3cnc4c(=O)[nH]c(N)nc43)C(=O)Cn3ccc(N)nc3=O)C(=O)Cn3cnc4c(=O)[nH]c(N)nc43)c2n1` here?
A: 75.9 °C

Q: How did the Tm [9] turn out when `Cc1cn(CC(=O)N(CCN)CC(=O)NCCN(CC(=O)NCCN(CC(=O)NCCN(CC(=O)NCCN(CC(=O)NCCN(CC(=O)NCCN(CC(=O)NCCN(CC(=O)NCCN(CC(=O)NCCN(CC(N)=O)C(=O)Cn2cnc3c(N)ncnc32)C(=O)Cn2cc3cc(COCCN)[nH]c3nc2=O)C(=O)Cn2cnc3c(=O)[nH]c(N)nc32)C(=O)Cn2cnc3c(N)ncnc32)C(=O)Cn2cc3cc(COCCN)[nH]c3nc2=O)C(=O)Cn2cnc3c(N)ncnc32)C(=O)Cn2cnc3c(=O)[nH]c(N)nc32)C(=O)Cn2cnc3c(N)ncnc32)C(=O)Cn2ccc(N)nc2=O)c(=O)[nH]c1=O` was run?
A: 76.4 °C

Q: Which results are given for `Cc1cn(CC(=O)N(CCNC(=O)CN(CCNC(=O)CN(CCNC(=O)CN(CCNC(=O)CN(CCNC(=O)CN(CCNC(=O)CN(CCNC(=O)CN(CCNC(=O)CN(CCNC(=O)CN(CCNC(=O)CN(CCNC(=O)CN(CCNC(=O)CN(CCNC(=O)CN(CCNC(=O)CN(CCNC(=O)CN(CCNC(=O)CN(CCNC(=O)CN(CCNC(=O)CN(CCNC(=O)OCCC2c3ccccc3-c3ccccc32)C(=O)Cn2ccc(N)nc2=O)C(=O)Cn2cc3cc(COCCN)[nH]c3nc2=O)C(=O)Cn2ccc(N)nc2=O)C(=O)Cn2cc(C)c(=O)[nH]c2=O)C(=O)Cn2cnc3c(=O)[nH]c(NCCCCCCN)nc32)C(=O)Cn2ccc(N)nc2=O)C(=O)Cn2cc(C)c(=O)[nH]c2=O)C(=O)Cn2ccc(N)nc2=O)C(=O)Cn2cnc3c(=O)[nH]c(NCCCCCN)nc32)C(=O)Cn2ccc(N)nc2=O)C(=O)Cn2ccc(N)nc2=O)C(=O)Cn2cc(C)c(=O)[nH]c2=O)C(=O)Cn2cnc3c(=O)[nH]c(NCCCCCCN)nc32)C(=O)Cn2cc(C)c(=O)[nH]c2=O)C(=O)Cn2ccc(N)nc2=O)C(=O)Cn2ccc(N)nc2=O)C(=O)Cn2cnc3c(=O)[nH]c(NCCCCCCN)nc32)C(=O)Cn2cnc3c(=O)[nH]c(N)nc32)CC(=O)NCCN(N)C(=O)Cn2cnc3c(N)ncnc32)c(=O)[nH]c1=O`?
A: Tm [8]: 63.5 °C; inhibition [2]: inactive; Tm [3]: 77 °C; Activity [4]: Non-toxic; Activity [5]: inactive

Q: For `NCCCCCCNc1nc2c(ncn2CC(=O)N(CCN)CC(=O)NCCN(CC(=O)NCCN(CC(=O)NCCN(CC(=O)NCCN(CC(=O)NCCN(CC(=O)NCCN(CC(=O)NCCN(CC(=O)NCCN(CC(=O)NCCN(CC(N)=O)C(=O)Cn2cnc3c(=O)[nH]c(N)nc32)C(=O)Cn2cnc3c(N)ncnc32)C(=O)Cn2cnc3c(=O)[nH]c(N)nc32)C(=O)Cn2ccc(N)nc2=O)C(=O)Cn2cnc3c(=O)[nH]c(N)nc32)C(=O)Cn2cnc3c(N)nc(NCCCCCN)nc32)C(=O)Cn2cnc3c(=O)[nH]c(N)nc32)C(=O)Cn2cnc3c(N)ncnc32)C(=O)Cn2ccc(N)nc2=O)c(=O)[nH]1`, which Tm [9] is on record?
A: 76.9 °C

Q: Which Tm [9] does the source give for `NCCCCCNc1nc(N)c2ncn(CC(=O)N(CCNC(=O)CN(CCNC(=O)CN(CCNC(=O)CN(CCNC(=O)CN(CCNC(=O)CN(CCN)C(=O)Cn3cnc4c(N)ncnc43)C(=O)Cn3cnc4c(=O)[nH]c(N)nc43)C(=O)Cn3ccc(N)nc3=O)C(=O)Cn3cnc4c(N)ncnc43)C(=O)Cn3ccc(N)nc3=O)CC(=O)NCCN(CC(=O)NCCN(CC(=O)NCCN(CC(=O)NCCN(CC(N)=O)C(=O)Cn3cnc4c(N)ncnc43)C(=O)Cn3ccc(N)nc3=O)C(=O)Cn3cnc4c(N)ncnc43)C(=O)Cn3cnc4c(=O)[nH]c(N)nc43)c2n1` here?
A: 69.2 °C

Q: `NCCN(CC(=O)NCCN(CC(=O)NCCN(CC(=O)NCCN(CC(=O)NCCN(CC(=O)NCCN(CC(=O)NCCN(CC(=O)NCCN(CC(=O)NCCN(CC(=O)NCCN(CC(N)=O)C(=O)Cn1ccc(N)nc1=O)C(=O)Cn1cnc2c(=O)[nH]c(N)nc21)C(=O)Cn1cnc2c(N)ncnc21)C(=O)Cn1cnc2c(=O)[nH]c(N)nc21)C(=O)Cn1cnc2c(N)ncnc21)C(=O)Cn1ccc(N)nc1=O)C(=O)Cn1cnc2c(N)ncnc21)C(=O)Cn1cnc2c(=O)[nH]c(N)nc21)C(=O)Cn1cnc2c(N)ncnc21)C(=O)Cn1ccc(N)nc1=O` was tested. Which Tm [9] did it give?
A: 71 °C
